Measurements taken from the supplement of paper PMC10307832.

Legend:
Assay in all cases: relative viability (nuclei count vs DMSO), 5 days (fraction); higher = more cells survive
[1] = compound: CCN1CCC(CC1)N2C=C(N=N2)CNC3=CC4=C(C(=CN=C4C(=C3)Cl)C#N)NC5=CC(=C(C=C5)F)Cl [KIN001-266] + CC1(C)CCC(c2ccc(Cl)cc2)=C(CN2CCN(c3ccc(C(=O)NS(=O)(=O)c4ccc(N[C@H](CCN5CCOCC5)CSc5ccccc5)c(S(=O)(=O)C(F)(F)F)c4)cc3)CC2)C1 [Navitoclax] (partner 0.5 µM)
In short: (§1)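 Relative viability was taken as the ratio of nuclei in treated wells to nuclei in vehicle wells. Lung cancer cell lines in 1536-well plates received compounds by pin tool one day after seeding, either one drug alone or a fixed anchor-drug dose plus five library-drug doses (not always all listed) in √10 steps. Nuclei were counted on 4× images after 5 days of treatment, and values are medians of duplicate plates.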

[2] = compound: CCN1CCC(CC1)N2C=C(N=N2)CNC3=CC4=C(C(=CN=C4C(=C3)Cl)C#N)NC5=CC(=C(C=C5)F)Cl [KIN001-266] + C[C@]1(O)C[C@@H](c2nc(-c3ccc4ccc(-c5ccccc5)nc4c3)c3c(N)nccn32)C1 [Linsitinib] (partner 1 µM)
In short: as §1

[3] = compound: CCN1CCC(CC1)N2C=C(N=N2)CNC3=CC4=C(C(=CN=C4C(=C3)Cl)C#N)NC5=CC(=C(C=C5)F)Cl [KIN001-266] + Nc1nc2[nH]cc(CCc3ccc(C(=O)N[C@@H](CCC(=O)O)C(=O)O)cc3)c2c(=O)[nH]1 [Pemetrexed] (partner 0.2 µM)
In short: as §1

[4] = compound: CCN1CCC(CC1)N2C=C(N=N2)CNC3=CC4=C(C(=CN=C4C(=C3)Cl)C#N)NC5=CC(=C(C=C5)F)Cl [KIN001-266] + O=C(CCCCCCC(=O)Nc1ccccc1)NO [Vorinostat] (partner 1 µM)
In short: as §1

Row | Cell Line | relative viability ([1]; first compound 0.08 µM) | relative viability ([1]; first compound 0.253 µM) | relative viability ([1]; first compound 0.8 µM) | relative viability ([1]; first compound 2.53 µM) | relative viability ([1]; first compound 8 µM) | relative viability ([2]; first compound 0.08 µM) | relative viability ([2]; first compound 0.253 µM) | relative viability ([2]; first compound 0.8 µM) | relative viability ([2]; first compound 2.53 µM) | relative viability ([2]; first compound 8 µM) | relative viability ([3]; first compound 0.08 µM) | relative viability ([3]; first compound 0.253 µM) | relative viability ([3]; first compound 0.8 µM) | relative viability ([3]; first compound 2.53 µM) | relative viability ([3]; first compound 8 µM) | relative viability ([4]; first compound 0.08 µM) | relative viability ([4]; first compound 0.253 µM) | relative viability ([4]; first compound 0.8 µM) | relative viability ([4]; first compound 2.53 µM) | relative viability ([4]; first compound 8 µM)
1 | NCI-H2087 | 1.17 | 0.93 | 0.916 | 0.97 | 0.56 | 0.924 | 0.95 | 0.963 | 0.791 | 0.599 | 0.646 | 0.716 | 0.637 | 0.581 | 0.587 | 0.455 | 0.776 | 0.965 | 0.898 | 0.594
2 | NCI-H2126 | 0.844 | 0.86 | 0.863 | 0.813 | 0.855 | 0.72 | 0.724 | 0.739 | 0.73 | 0.73 | 0.713 | 0.73 | 0.758 | 0.687 | 0.619 | 0.809 | 0.783 | 0.751 | 0.732 | 0.694
3 | NCI-H2228 | 0.738 | 0.937 | 1.4 | 0.851 | 0.514 | 0.94 | 0.813 | 0.483 | 0.518 | 0.454 | 0.329 | 0.325 | 0.35 | 0.322 | 0.352 | 0.631 | 0.645 | 0.722 | 0.509 | 0.422
